# Tested on: moderate-to-severe chronic spontaneous urticaria (CSU)
# Test: Phase 2 CSU study: urticaria activity score over 7 days (UAS7)
# Format: in vivo, human
# Set-up: key to UAS7 Median / UAS7 Change from baseline Median / UAS7 change from baseline, Q1 / UAS7 change from baseline, Q3 / UAS7 change from baseline, Max / UAS7 Change from baseline LS Mean (SE): UAS7 points; daily UAS score ranges 0–6 points/day, over 7 days
# Description: The study comprises a 12 week, randomized, double-blind, placebo-controlled, multi-center, dose-ranging efficacy and safety phase, followed by a 40 week open label extension (OLE) phase (see FIG. 1). The study consists of three phases and an optional OLE phase. […] Clinically, CSU is characterized by the spontaneous and recurrent appearance of pruritic hives. The proposed primary endpoints were the UAS7 at Week 12 in EU and EU reference countries and the ISS7 in the US. Regardless of where a participant was from, all assessments were the same. The UAS7 score is a composite score containing both the HSS7 and the ISS7. This allowed a global assessment of the two key components of urticaria: hives and itch. […] The UAS is a validated PRO measure. […] The daily UAS scores range from 0 to 6 point/day. […] Patients were to complete the UAS using the e-diary. […] The following secondary endpoints were to be analyzed using the same approach as for the primary endpoint: • Change from baseline in UAS7 at Week 4 • Change from baseline in UAS7 at Week 12 (for US and US reference countries) • Change from baseline in ISS7 at Week 12 (except US and US reference countries) • Change from baseline in HSS7 at Week 12 The following responder secondary endpoints were to be analyzed using the Cochran-Mantel-Haenszel test adjusted by region: • Proportion of participants with UAS7<6 at Week 12 • Proportion of participants with UAS7=0 at Week 12 Participants who received selected prohibited medications and/or rescue medications were to be considered as non-responders for time points after the medication usage. For other participants, all available data including those collected during the off-treatment period were to be used to determine the responder/non-responder status. Missing data were to be considered as non-responders.
# [1] = Week 8, 400 mg BID, omalizumab-naive participants
# [2] = Week 8, 400 mg QPM, ITT population
# [3] = Week 8, 400 mg QPM, Omalizumab-Naïve
# [4] = Week 8, 400 mg QPM, Prior Omalizumab Use
# [5] = Week 8, 400 mg QPM, omalizumab-naive participants
# [6] = Week 8, 400 mg TID, ITT population
# [7] = Week 8, 400 mg TID, Omalizumab-Naïve
# [8] = Week 8, 400 mg TID, Prior Omalizumab Use
# [9] = Week 8, 400 mg TID, omalizumab-naive participants
# [10] = Week 9, 400 mg BID, ITT population
# [11] = Week 9, 400 mg BID, Omalizumab-Naïve
# [12] = Week 9, 400 mg BID, Prior Omalizumab Use
# [13] = Week 9, 400 mg BID, omalizumab-naive participants
# [14] = Week 9, 400 mg QPM, ITT population
# [15] = Week 9, 400 mg QPM, Omalizumab-Naïve
smiles,measurement,setting,value
"CC(C)(C=C(C#N)C(=O)N1CCC[C@@H](n2nc(-c3ccc(Oc4ccccc4)cc3F)c3c(N)ncnc32)C1)N1CCN(C2COC2)CC1 [rilzabrutinib, (R)-2-[3-[4-amino-3-(2-fluoro-4-phenoxy-phenyl)pyrazolo[3,4-d]pyrimidin-1-yl]piperidine-1-carbonyl]-4-methyl-4-[4-(oxetan-3-yl)piperazin-1-yl]pent-2-enenitrile]","RRD (%) for rilzabrutinib vs. placebo, UAS7 reduction of 10 points or more",[1],24.0 %
same,"Responder, UAS7 reduction from baseline of 10 points or more",[1],21 (60.0) n (%)
same,"Non-responder, UAS7 reduction from baseline of 10 points or more",[2],21 (55.3) n (%)
same,"OR for rilzabrutinib vs. placebo, UAS7 reduction of 10 points or more",[2],1.257
same,"RRD (%) for rilzabrutinib vs. placebo, UAS7 reduction of 10 points or more",[2],5.3 %
same,"Responder, UAS7 reduction from baseline of 10 points or more",[2],17 (44.7) n (%)
same,UAS7 Change from baseline Mean (SD),[3],−10.63 (9.70)
same,UAS7 Change from baseline Median,[3],−10.80
same,UAS7 Median,[3],21.00
same,UAS7 Percent change from baseline Mean (SD),[3],−33.68 (30.26) %
same,UAS7 Percent change from baseline Median,[3],−31.82%
same,UAS7 Change from baseline Mean (SD),[4],−25.00 (NC)
same,UAS7 Change from baseline Median,[4],−25.00
same,UAS7 Mean (SD),[4],16.00 (NC)
same,UAS7 Median,[4],16.00
same,UAS7 Percent change from baseline Mean (SD),[4],−60.98 (NC) %
same,UAS7 Percent change from baseline Median,[4],−60.98%
same,"Non-responder, UAS7 reduction from baseline of 10 points or more",[5],21 (56.8) n (%)
same,"OR for rilzabrutinib vs. placebo, UAS7 reduction of 10 points or more",[5],1.331
same,"RRD (%) for rilzabrutinib vs. placebo, UAS7 reduction of 10 points or more",[5],6.6 %
same,"Responder, UAS7 reduction from baseline of 10 points or more",[5],16 (43.2) n (%)
same,"Non-responder, UAS7 reduction from baseline of 10 points or more",[6],14 (34.1) n (%)
same,"RRD (%) for rilzabrutinib vs. placebo, UAS7 reduction of 10 points or more",[6],23.2 %
same,"Responder, UAS7 reduction from baseline of 10 points or more",[6],27 (65.9) n (%)
same,UAS7 Change from baseline Mean (SD),[7],−16.89 (10.13)
same,UAS7 Change from baseline Median,[7],−15.17
same,UAS7 Mean (SD),[7],13.36 (9.81)
same,UAS7 Median,[7],14.00
same,UAS7 Percent change from baseline Mean (SD),[7],−55.66 (31.25) %
same,UAS7 Percent change from baseline Median,[7],−55.83%
same,UAS7 Change from baseline Median,[8],−25.58
same,UAS7 Mean (SD),[8],7.50 (11.26)
same,UAS7 Median,[8],3.00
same,UAS7 Percent change from baseline Mean (SD),[8],−78.96 (25.66) %
same,UAS7 Percent change from baseline Median,[8],−84.90%
same,"Non-responder, UAS7 reduction from baseline of 10 points or more",[9],13 (37.1) n (%)
same,"OR for rilzabrutinib vs. placebo, UAS7 reduction of 10 points or more",[9],2.815
same,"RRD (%) for rilzabrutinib vs. placebo, UAS7 reduction of 10 points or more",[9],25.7 %
same,"Responder, UAS7 reduction from baseline of 10 points or more",[9],22 (62.9) n (%)
same,"Non-responder, UAS7 reduction from baseline of 10 points or more",[10],20 (48.8) n (%)
same,"OR for rilzabrutinib vs. placebo, UAS7 reduction of 10 points or more",[10],1.471
same,"RRD (%) for rilzabrutinib vs. placebo, UAS7 reduction of 10 points or more",[10],10.6 %
same,"Responder, UAS7 reduction from baseline of 10 points or more",[10],21 (51.2) n (%)
same,UAS7 Change from baseline Median,[11],−17.00
same,UAS7 Mean (SD),[11],14.64 (14.43)
same,UAS7 Percent change from baseline Mean (SD),[11],−53.27 (40.38) %
same,UAS7 Percent change from baseline Median,[11],−59.77%
same,UAS7 Change from baseline Mean (SD),[12],−20.83 (19.15)
same,UAS7 Change from baseline Median,[12],−27.00
same,UAS7 Mean (SD),[12],11.17 (15.78)
same,UAS7 Median,[12],1.00
same,UAS7 Percent change from baseline Mean (SD),[12],−60.63 (52.86) %
same,UAS7 Percent change from baseline Median,[12],−97.62%
same,"Non-responder, UAS7 reduction from baseline of 10 points or more",[13],17 (48.6) n (%)
same,"OR for rilzabrutinib vs. placebo, UAS7 reduction of 10 points or more",[13],1.764
same,"RRD (%) for rilzabrutinib vs. placebo, UAS7 reduction of 10 points or more",[13],16.0 %
same,"Responder, UAS7 reduction from baseline of 10 points or more",[13],18 (51.4) n (%)
same,"Non-responder, UAS7 reduction from baseline of 10 points or more",[14],20 (52.6) n (%)
same,"OR for rilzabrutinib vs. placebo, UAS7 reduction of 10 points or more",[14],1.452
same,"RRD (%) for rilzabrutinib vs. placebo, UAS7 reduction of 10 points or more",[14],8.5 %
same,"Responder, UAS7 reduction from baseline of 10 points or more",[14],18 (47.4) n (%)
same,UAS7 Change from baseline Median,[15],−11.00
same,UAS7 Mean (SD),[15],20.25 (10.25)
same,UAS7 Median,[15],19.33
same,UAS7 Percent change from baseline Mean (SD),[15],−36.26 (27.83) %
same,UAS7 Percent change from baseline Median,[15],−32.58%
